Data from paper PMC12386809, “Phenanthrene Monomers and Dimers from Juncus tenuis with Antiproliferative Activity and Synergistic Effect with Doxorubicin Against Human Colon Cancer Cell Lines” (International Journal of Molecular Sciences, 2025).
Converted amounts (≈) assume the structure as drawn.

Columns and labels:
[1] = system: HepG2 cells; conditions: cited from earlier work
[2] = set-up: method as in PMID 31125040; conditions: cited from earlier work
[3] = system: SMMC-7721; set-up: method as in PMID 26072042; conditions: cited from earlier work
[4] = system: MCF-7; set-up: method as in PMID 26072042; conditions: cited from earlier work
[5] = system: HepG-2; set-up: method as in PMID 26072042; conditions: cited from earlier work
[6] = system: COLO 320/MDR-LRP multidrug-resistant human colonic adenocarcinoma cells; experiment: MTT antiproliferative assay, COLO 320; type: cell-based; conditions: Homo sapiens, COLO 320, 72 h, COLO 320 (multidrug-resistant), read-out: IC50 (µM) ± SD COLO 320
Method: (§1) The antiproliferative effects of the isolated phenanthrenes (compounds 1–19) were evaluated using human cancer cell lines, including doxorubicin-sensitive colonic adenocarcinoma COLO 205 and multidrug-resistant colonic adenocarcinoma COLO 320/MDR-LRP (which expresses P-glycoprotein [MDR1] and LRP), as well as non-cancerous human lung fibroblast CCD-19Lu cells. CCD-19Lu was chosen because it is a well-characterized, non-tumorigenic cell line commonly used to assess general cytotoxicity. Moreover, data from the literature support the use of lung fibroblast cell lines—including CCD-19Lu—as normal controls in studies involving colon cancer cells such as Colo 205 and Colo 320 [33]. The thiazolyl blue tetrazolium bromide (MTT) assay was employed to determine the concentration of each compound required to inhibit 50% of the cell viability (IC50), as summarized in Table 3.
(§2) The human colon adenocarcinoma cells—COLO 205 (CCL-222, doxorubicin-sensitive) and COLO 320/MDR-LRP (ATCC-CCL-220.1, multidrug-resistant, expressing P-gp)—were cultured in RPMI 1640 medium supplemented with 10% heat-inactivated fetal bovine serum, 2 mM of L-glutamine, 1 mM of sodium pyruvate, and 100 mM of HEPES. The non-cancerous human lung fibroblast cell line CCD-19Lu was maintained in Eagle’s Minimal Essential Medium (EMEM; containing 4.5 g/L of glucose) supplemented with a non-essential amino acid mixture, selected vitamins, and 10% heat-inactivated fetal bovine serum. All of the cell lines were detached using 0.25% trypsin and 0.02% EDTA for 5 min at 37 °C. The cell lines were obtained from LGC Promochem (Teddington, England).
(§3) Human colonic adenocarcinoma cell lines—doxorubicin-sensitive COLO 205 and multidrug-resistant COLO 320—as well as the non-cancerous human lung fibroblast cell line CCD-19Lu were used to evaluate the effects of the test compounds on cell proliferation. The assays were conducted in 96-well flat-bottomed microtiter plates. Stock solutions of the compounds were prepared in dimethyl sulfoxide (DMSO), with the final DMSO concentration kept below 1% in all samples. The compounds were diluted in 100 µL of the appropriate culture medium. Adherent cells were cultured in EMEM supplemented with 10% heat-inactivated fetal bovine serum and seeded into 96-well plates at a density of 6 × 10^3 cells per 100 µL per well. The cells were allowed to adhere for 24 h at 37 °C in a humidified incubator with 5% CO2. After incubation, the medium was removed and replaced with 100 µL of fresh medium. Serial dilutions of the compounds were prepared in separate plates and added to the cells, starting from a concentration of 100 µM with twofold serial dilutions (final concentration range: 100–0.19 µM). The cells were then incubated for 72 h at 37 °C. At the end of the incubation period, 20 µL of thiazolyl blue tetrazolium bromide (MTT) solution (5 mg/mL, Sigma) was added to each well. After 4 h of incubation at 37 °C, 100 µL of 10% sodium dodecyl sulfate (SDS) in 0.01 M HCl was added to solubilize the formazan crystals, and the plates were incubated overnight at 37 °C. Cell viability was assessed by measuring the optical density (OD) at 540/630 nm using a Multiscan EX ELISA reader (Thermo Labsystems, Cheshire, WA, USA).
(§4) The inhibitory concentration that reduced cell growth by 50% (IC50) was determined from the dose–response curves. The percent inhibition was calculated using the formula100 − ((OD_sample − OD_medium control)/(OD_cell control − OD_medium control)) × 100
(§5) Dose–response curves were generated by plotting the percent inhibition against the logarithm of the compound concentrations and fitted using Prism5 software (Version 6, GraphPad Software Inc., San Diego, CA, USA). The IC50 values were derived from four independent experiments conducted in parallel for each cell line and are reported as the mean values.

[7] = system: CCD-19Lu non-cancerous human lung fibroblast cells; experiment: MTT antiproliferative assay, CCD-19Lu; type: cell-based; conditions: 72 h, CCD-19Lu non-tumorigenic fibroblasts, read-out: IC50 (µM) ± SD CCD-19Lu
Method: as §1, §2, §3, §4, §5

[8] = system: HT22 cells (mouse hippocampal neuroblastoma cell line); set-up: method as in doi:10.1007/s11101-018-9561-5, PMID 25794817; conditions: 100 µM, 24 h; cited from earlier work
[9] = system: multidrug-resistant COLO 320 cells; experiment: Drug combination assay with doxorubicin (Chou-Talalay, MTT); type: cell-based, human
Method: One promising approach involves the discovery of new bioactive natural products. To explore this, a chemosensitivity assay was conducted to examine the in vitro interactions between the isolated compounds and the antineoplastic agent doxorubicin, a substrate of P-glycoprotein (P-gp). A combination chemotherapy model was applied using human COLO 320 colon carcinoma cells. The combination index (CI), calculated according to the Chou–Talalay method, was used to evaluate drug–drug interactions, classifying them as synergistic (CI < 1), additive (CI = 1), or antagonistic (CI > 1) (Table 4).
The multidrug-resistant COLO 320 cell line was used to perform the drug combination assay. Doxorubicin (2 mg/mL, Teva Pharmaceuticals, Budapest, Hungary) was serially diluted horizontally, starting with 8.6 µM. The resistance modifier was subsequently diluted vertically, with the starting concentration determined based on the IC50 value. Doxorubicin was diluted horizontally in 100 µL, while the resistance modifiers were diluted vertically in 50 µL in the microtiter plate. The compounds and doxorubicin were prepared as separate dilutions. The cells were seeded at a density of 6 × 10^3 cells per well into 100 µL of medium and incubated for 24 h at 37 °C in a 5% CO2 atmosphere prior to treatment. After this period, the culture medium was removed, and 50 µL of fresh medium was added to each well, followed by the addition of 50 µL of the diluted compounds, resulting in a final volume of 200 µL per well. The plates were then incubated for 72 h at 37 °C under 5% CO2. The cell viability was assessed at the end of incubation using the MTT assay, as described previously. Drug interactions were analyzed using CompuSyn software (Version 1.00).
The dose–response curves for individual agents and their combinations were fitted to a linear model based on the median-effect equation to calculate the median effective dose (IC50) and the slope (m). The quality of the fit was evaluated using the linear correlation coefficient (r), and only data with r > 0.90 are reported. The extent of drug interaction was quantified using the combination index (CI), where CI ≈ 1 indicated an additive effect, CI < 1 signified synergy, and CI > 1 denoted antagonism.

[10] = system: COLO 205 (doxorubicin-sensitive) human colonic adenocarcinoma cells; experiment: MTT antiproliferative assay, COLO 205; type: cell-based; conditions: Homo sapiens, COLO 205, 72 h, read-out: IC50 (µM) ± SD COLO 205
Method: as §1, §2, §3, §4, §5

[11] = system: NCI 90 KB (human epidermoid nasopharynx carcinoma) cells; set-up: method as in PMID 830696; conditions: NCI 90 KB cells; cited from earlier work
[12] = system: HeLa cells; set-up: method as in PMID 33348712; conditions: cited from earlier work

## juncunol
[1]; HepG2, concentration-dependent (IC50 value ± 25%)
  apoptotic cells: increase in the number of apoptotic cells
[1]; HepG2
  cell cycle arrest: G0/G1 phase
  Δψm: decrease in Δψm
[1]; HepG2 cells
  IC50: 18 µM
[2]
  hemolytic properties: no hemolytic properties

## C=Cc1cc(O)cc2c1-c1cc(-c3c(O)cc(C=C)c4c3ccc3c(C)c(O)ccc34)c(O)c(C)c1CC2 [effususin B]
[3]
  IC50: 13.6 µM
[4]
  IC50: 12.5 µM
[5]
  IC50: 12.9 µM

## C=Cc1c(C)c(O)cc2c1-c1ccc(O)c(C)c1CC2 [Compound 11, juncusol]
[6]
  IC50: 36.2 ± 3.81 µM
[7]
  IC50: 44.4 ± 2.82 µM
[8]
  decrease in MTT reduction: 25.4%
[9]; combination with doxorubicin, COLO 320, 72 h, Chou-Talalay
  CI at ED50 (combination index): 0.582
[9]; interaction with doxorubicin in COLO 320, class from CI
  Interaction: synergism (0.3 < CI < 0.7, synergism)
[10]
  IC50: 31.9 ± 1.91 µM
[11]
  ED50: 0.3 µg/mL (≈ 1.13 µM)
[12]
  IC50: 0.5 µM
